Experimental data published in US20230220047A1, “PEPTIDES FOR TREATMENT OF SEPSIS AND CANCER” (NORWEGIAN UNIVERSITY OF SCIENCE AND TECHNOLOGY (NTNU), priority 2020, published 2023).

Test system: primary human monocytes
Assay: Confocal analysis of E. coli particle uptake by primary human monocytes
Type: cell-based
Conditions: 3 μM, similar extent as P7-Pen
Procedure: Cells were pre-incubated with Pen or P7-Pen peptides, followed by addition of Alexa Fluor 488-labeled bioparticles for the times indicated (15, 30 or 45 min). Fluorescent bacteria particles were counted by spot-detection in Bitplane Imaris imaging software and used to calculate the number of particles per cell. […] Pre-incubation with 3 μM cytochalasin D (CytoD, and inhibitor of actin polymerization) inhibited uptake of E. coli to a similar extent as P7-Pen.
THP-1 cells, THP-1^cherry cells or human PBMC were seeded in 24-well glass-bottom plates (MatTek Corporation), 125,000 cells/well. The THP-1 cells were differentiated into macrophages with 60 ng/ml PMA for 72 h and thereafter rested for 48 h, whereas the PBMC were used the day after isolation. The P7-penatratin peptide or control peptide was added to the cells 30 min before stimulation at 15 μM concentration. If used, 3 μM cytochalasin D (CytoD) was added simultaneously. […] A spot detection mode in the Bitplan Imaris software was used to define individual phagosomes and cells were counted manually. […] Fluorescence voxel intensity of TRAM^cherry at the phagosome is also presented. Statistical significance was calculated in GraphPad Prism by One-way ANOVA Kruskal-Wallis multiple comparison test. […]

For `C=C1[C@@H](C)[C@H]2[C@H](Cc3ccccc3)NC(=O)[C@]23[C@H](OC(C)=O)/C=C/[C@@](C)(O)C(=O)[C@@H](C)C/C=C/[C@H]3[C@@H]1O` [cytochalasin D, reference compound], the “uptake of E. coli” value was “inhibited”.
